Data set [1] deals with Primary human CD8+ T-cells. Description: CD8+ T-cell proliferation, BrdU incorporation. It is filed as cell-based. To be noted: 72 hours, anti-CD3/anti-CD28 coated beads, BrdU incorporation (FIG. 1). The procedure: Primary human CD8+ T-cells isolated from healthy donor PBMCs were incubated in the presence of anti-CD^3/anti-CD28 coated beads with increasing concentrations of VS-4718 or VS-6063 for 72-hours and assayed for BrdU incorporation as a measure of new DNA synthesis.
CD8+ T cells were isolated from fresh, healthy human PBMCs by negative immunomagnetic bead separation. Purified CD8+ T cells were plated on CD3-coated plates in the presence or absence of VS-4718, VS-6063, or GSK2256098 for 72 hours. Assay wells were pulsed with BrdU for the last 3-4 hours of culture and subjected to a BrdU-incorporation assay for the determination of actively proliferating cells. Data shown in FIG. 5 are presented as fold-change vs. DMSO control wells.
On the technique in general: Incorporation of labelled thymidine or its analogues reports DNA synthesis.

The subject of data set [2] is syngeneic MC38 colorectal tumors. Briefly: Survival of mice bearing MC38 colorectal tumors. It is filed as in vivo, mouse. The procedure:
Based on the inhibition of tumor-associated macrophages and enhancement of CD8+ T-cells, potentiation of FAK/PYK2 inhibitors on the anti-tumor efficacy of an anti-PD-1 monoclonal antibody in syngeneic mouse tumor models was investigated. Mice bearing established syngeneic MC38 colorectal tumors were treated with VS-4718 for 5 days before combination treatment with anti-PD1 antibody along with continued VS-4718 administration. Combination of VS-4718 with anti-PD1 extended the median overall survival to 42 days relative to 21, 25 and 28 day median overall survival with vehicle control, single agent anti-PD-1 and single agent VS-4718, respectively (FIG. 2).

Take `CNC(=O)c1ccccc1Nc1cc(Nc2ccc(N3CCOCC3)cc2OC)ncc1C(F)(F)F` [VS-4718]: in data set [1], the “proliferation of CD8+ cytotoxic T-cells” value is reported as “stimulate proliferation”. For the same molecule, the mice still surviving result in data set [2] (day 56, MC38 model) is listed as “no surviving mice”. Besides, the median overall survival in data set [2] (mice with established MC38 tumors, VS-4718 for 5 days before combination with anti-PD1 (FIG. 2)) came to 28 days.
Regarding `Cc1nc(Nc2ncc(C(=O)Nc3c(C)cccc3Cl)s2)cc(N2CCN(CCO)CC2)n1` [dasatinib], the “proliferation of CD8+ cytotoxic T-cells” value in data set [1] is listed as “potently impair the proliferation”.
The same measure, in the same setting: for `CC(=O)Nc1cccc(-n2c(=O)n(C3CC3)c(=O)c3c(Nc4ccc(I)cc4F)n(C)c(=O)c(C)c32)c1` [trametinib] the value was “potently impair the proliferation”.

The values are drawn from patent US11564927B2, “Therapeutic compositions, combinations, and methods of use” (Verastem, Inc., priority 2015, dated 2023).
